# pIC50: −log10 of the molar value. Where “and” joins values, the source holds several entries; their conditions need not be identical. Equal values may be shown once.
# What was measured:
# IL 8 = IL 8 release from U937 cells stimulated with heat-killed P. acnes (ELISA); assay type: cell-based, human; conditions: for Inhibitory ratio (%) IL 8: 18 h
# Experimental: (§1) Briefly, the log phase culture of P. acnes was harvested, washed three times with phosphate buffer saline (PBS), and incubated at 80°C for 30 min to kill the bacteria. The heat-killed bacteria were stored at 4°C until use. […] Pentoxifylline was used as a control. […] Cytokine standards were serially diluted to facilitate the construction of calibration curves necessary for determining protein concentration after treatment with test samples. The ratio (%) of inhibition of the cytokine release was calculated using the following equation: […] Where T represents the concentration of the cytokine in the culture supernatant with the test sample, and C represents the concentration of cytokine in the culture supernatant with the solvent.
# TNF α = TNF α release from U937 cells stimulated with heat-killed P. acnes (ELISA); assay type: cell-based, human; conditions: for Inhibitory ratio (%) TNF α: 18 h
# Experimental: as §1
# [1] = In vitro cytotoxicity assay (XTT), U937; conditions: human, U937 human macrophage cells
# Experimental: (§2) The mouse melanocytes (B16-F10) cells were cultured in a complete Minimum Essential Eagle’s Medium (MEM) whereas the human U937 cells were cultured in Roswell Park Memorial Institute (RPMI) containing 10% fetal bovine serum (FBS) and 1% gentamycin. B16-F10 (10^5 cells per well) and U937 (10^6 cells per well) were seeded into a 96-well plate. After an overnight incubation at 37°C in 5% CO2 and a humidified atmosphere, the extract, compounds and the positive control (actinomycin D) were added to the cells. […] The highest concentration of positive control (0.05 μg/ml) was serially diluted to eight consecutive wells. The plate was then incubated at 37°C in 5% CO2, and a humidified atmosphere after which the toxic effects of the extracts were assayed using the XTT (sodium 3’-[1-(phenyl amino-carbonyl)-3,4-tetrazolium]-bis-[4-methoxy-6-nitrobenzene sulfonic acid hydrate) cytotoxicity assay. […] The optical densities of the wells were measured at 450 nm (690 nm reference wavelength) using BIOTEK Power-wave XS multi well reader (A.D.P., Weltevreden Park, South Africa). By referring to the control (medium with DMSO), the cell survival rate was assessed.
# U937 human macrophage = assay: In vitro cytotoxicity assay (XTT), U937; conditions: U937 cells
# Experimental: as §2
# DPPH antioxidant assay = assay type: biochemical
# Experimental: Antioxidant activity of the ethanol extract of S. jambos and compounds was investigated using 1,2-diphenyl-1-picrylhydrazyl (DPPH) antioxidant assay. Following the procedures as described by DuToit et al. for each sample, a dilution series (8 dilutions) was prepared in a 96 well plate by adding distilled water as a dilution medium. Final concentration of the samples ranged from 100 to 0.7 μg/ml. Each concentration was tested in triplicate. Vitamin C was used as a positive control. […] The radical scavenging activity was measured in terms of the amount of antioxidants necessary to decrease the initial DPPH absorbance by 50% (IC50). The IC50 value of each sample was determined graphically by plotting the absorbance of DPPH as a function of the sample concentration in μg/ml. The IC50 is the amount of antioxidant necessary to decrease the initial DPPH absorbance by 50%. The results are expressed as the mg vitamin C equivalents/g dry weight and calculated as follows: […]
# [2] = test system: Propionibacterium acnes (ATCC 11827); assay: Antibacterial activity, broth microdilution MIC (INT colour change); assay type: cell-based; conditions: P. acnes, 72 h anaerobic, 37°C
# Experimental: The ethanol extract and compounds were tested against P. acnes by determining the minimum inhibitory concentration (MIC) values obtained by a microdilution method as previously described with few modifications. Briefly, the bacteria was cultured from a Kwik-Stick on nutrient agar and incubated at 37°C for 72 h under anaerobic conditions before the assay. The 72 h culture of the bacteria was dissolved in nutrient broth and the suspension was adjusted to 0.5 McFarland standard turbidity. […] In a sterile 96-well plate, 100 μl of samples from the stock solution consisting of the plant extract/isolated compounds (2 mg/ml in 10% dimethyl sulphoxide (DMSO)) and the positive control tetracycline (0.2 mg/ml) were diluted with broth. Twofold serial dilutions were made in broth over a range to give concentrations of 500–3.9 μg/ml and 50–0.3 and μg/ml for the plant extract/ isolated compounds and positive control tetracycline, respectively. The bacterial suspension (100 μl) was then added to the wells. The wells with 2.5% DMSO and bacterial suspension without samples served as the solvent and negative controls, respectively. The plates were incubated at 37°C for 72 h in an anaerobic environment.
# [3] = In vitro cytotoxicity assay (XTT), B16-F10; conditions: mouse, B16-F10 mouse melanocyte cells
# Experimental: as §2
# [4] = test system: B16-F10 mouse melanocytes; assay: In vitro cytotoxicity assay (XTT), B16-F10; conditions: B16-F10 cells
# Experimental: as §2
# [5] = at the highest concentration tested
compound,measurement,setting,value
"O=c1c(O)c(-c2cc(O)c(O)c(O)c2)oc2cc(O)cc(O)c12 [Myricetin, myricetin]",Inhibition of IL 8 in words,IL 8; [5],low inhibition
same,Inhibitory ratio (%) IL 8,IL 8; final concentration 3.1 μg/ml,-0.5%
same,Inhibitory ratio (%) IL 8,IL 8; final concentration 6.2 μg/ml,10%
same,Inhibitory ratio (%) IL 8,IL 8; final concentration 12.5 μg/ml,34%
same,Inhibition of TNF α in words,TNF α; [5],moderately decreased
same,Inhibitory ratio (%) TNF α,TNF α; final concentration 3.1 μg/ml,-4.8%
same,Inhibitory ratio (%) TNF α,TNF α; final concentration 6.2 μg/ml,27.1%
same,Inhibitory ratio (%) TNF α,TNF α; final concentration 12.5 μg/ml,44.1%
same,EC50,[1],19.3 µg/mL and 60 µM
same,Toxicity in words,U937 human macrophage,moderate toxicity
same,Antioxidant IC50,"DPPH antioxidant assay; DPPH, 550 nm",0.9 µg/mL
same,pIC50,"DPPH antioxidant assay; DPPH, value in brackets",5.52
same,Antioxidant Mg Vit C equivalents/g dry weight,DPPH antioxidant assay; IC50 vit C/IC50 sample × 1000,2105.0 Mg Vit C equivalents/g dry weight
same,MIC,"[2]; Cutibacterium acnes, ATCC11827, 72 h",> 500 µg/mL
same,Antibacterial MIC,[2],Na (not active at the highest concentration tested (500 μg/ml))
same,EC50,[3],11.1 µg/mL and 35.1 µM
same,Toxicity in words,[4],significant toxicity

# — publication PMC4228444 (BMC Complementary and Alternative Medicine, 2013)
